Test [1] relates to LTB4 production in the hippocampus (HC). The conditions noted are these: LPS-stimulated rats, Student's T test.
Description: (§1) Male Sprague-Dawley rats were purchased from Harlan laboratories, fed ad libitum and housed in accordance with animal facility guidelines. Animals were assigned 10 each to the 7 groups, in accordance with the treatment protocol described below. Body temperature (BT) was measured at all treatment time-points, to evaluate the effects of drug treatment on the LPS-induced changes in BT. On the second day of the experiment, 2 hours post- drug treatment, rats were sacrificed by decapitation after a short anesthesia (with a mixture of isoflurane-oxygen in air inhalation), blood was collected and brain regions (hypothalamus and hippocampus) immediately extracted. Brain regions were manually homogenized in a PBS solution containing a cocktail of phosphatase/protease inhibitors. Homogenates were centrifuged at 4° C., 10,000 rpm, for 10 minutes. Supernatants were collected and stored at −80° C. for further determination.
(§2) Leukotriene B4 (LTB4) levels were determined in the hypothalamus and hippocampus samples, using commercially available ELISA kits.
(§3) Seven groups of rats, ten rats in each group, were administered treatment intra-peritoneally, according to the following treatment regimens: • 1)- Control group- Animals were treated with vehicle control (NaCl 0.9% 0.2 ml); • 2) LPS: Animals were treated with vehicle control at 6 and 2 hours prior to LPS (1 mg/kg) injection. […]
The subject of test [2] is LTB4 production in the hypothalamus (HT). The conditions noted are these: LPS-stimulated rats, Student's T test.
Description: as §1, §2, §3

“Also recorded” adds a separate entry of the source.

Turning to “Di-palmitoyl (C-16) phosphatidyl ethanolamine (DPPE) conjugated to hyaluronic acid (Hy) [HyDPPE]”, the “Effect on LPS-induced LTB4 production (in words)” value in test [1] is on record as “counteracted the LPS-induced production of LTB4; also recorded: reversed the increased LTB4 production”; in test [2], “counteracted the LPS-induced production of LTB4”.

Source of the values: patent US20240165148A1, “HYALURONIC ACID-CONJUGATED DIPALMITOYL PHOSPHATIDYL ETHANOLAMINE IN COMBINATION WITH NON-STEROIDAL ANTI-INFLAMMATORY DRUGS (NSAIDS) FOR TREATING OR ALLEVIATING INFLAMMATORY DISEASES” (priority 2021, published 2024).
